Assay results reported in patent US12415786B2, “Substituted 2-heteroarylaminobenzenes and the salts thereof and their use as herbicidal agents” (Bayer Aktiengesellschaft, priority 2019, dated 2025).

Assays:
Type in all cases: in vivo
Agrostis tenuis = assay: Herbicidal early post-emergence action (96-well microtiter plates), AGSTE; conditions: 1900 g/ha, scored 9 to 12 days after treatment, 100% = plants have died, 0% = like untreated control plants
Method in brief: (§1)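 Weed seeds grown in quartz sand in 96-well microtiter plates in a climate chamber and treated at the cotyledon stage, 5 to 7 days after sowing, with EC formulations at 2200 L/ha water and a rate equivalent to 1900 g/ha. Visual scoring after 9 to 12 days against untreated controls (0% = control, 100% = dead).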

Poa annua [1] = assay: Herbicidal early post-emergence action (96-well microtiter plates), POAAN; conditions: 1900 g/ha, scored 9 to 12 days after treatment, 100% = plants have died, 0% = like untreated control plants
Method in brief: as §1

Poa annua [2] = assay: Herbicidal post-emergence action (greenhouse pots), POAAN; conditions: 1280 g/ha, visual rating about 3 weeks after treatment vs untreated controls
Method in brief: (§2)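 Activity is a visual percentage score (0% = like untreated controls, 100% = plants died) taken about 3 weeks after treatment. Plants grown in sandy loam under greenhouse conditions received 1280 g/ha onto green parts at the one-leaf stage, formulated as WP or EC with 0.5% additive.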

Matricaria inodora [3] = assay: Herbicidal post-emergence action (greenhouse pots), MATIN; conditions: 1280 g/ha, visual rating about 3 weeks after treatment vs untreated controls
Source text: (§3) In the examples and tables below, the following abbreviations are used: • Undesired Plants/Weeds: • ABUTH: Abutilon theophrasti • AGSTE: Agrostis tenuis • AMARE Amaranthus retroflexus • ECHCG: Echinochloa crus-galli • LOLRI: Lolium rigidum • MATIN: Matricaria inodora • POAAN: Poa annua • SETVI: Setaria viridis • STEME: Stellaria media A. Herbicidal Early Post-Emergence Action Seeds of mono- and dicotyledonous weed plants were placed in plastic pots in sandy loam soil (doubly sown with in each case one species of mono- or dicotyledonous weed plants per pot), covered with soil and cultivated in a greenhouse under controlled growth conditions. 2 to 3 weeks after sowing, the test plants were treated at the one-leaf stage. The compounds of the invention, formulated in the form of wettable powders (WP) or as emulsion concentrates (EC), were applied onto the green parts of the plants as aqueous suspension or emulsion with addition of 0.5% additive at a water application rate of 600 liters per hectare (converted). After the test plants had been kept in the greenhouse under optimum growth conditions for about 3 weeks, the activity of the preparations was rated visually in comparison to untreated controls. For example, 100% activity=the plants have died, 0% activity=like untreated control plants. Tables B1-B8 below show the effects of selected compounds of the general formula (I) according to Table 1 above on various harmful plants and an application rate corresponding to 1280 g/ha, which were obtained by the experimental procedure mentioned above.

Echinochloa crus-galli [4] = assay: Herbicidal post-emergence action (greenhouse pots), ECHCG; conditions: 1280 g/ha, rated after about 3 weeks, 100% = plants have died, 0% = like untreated control plants
Method in brief: as §2

Abutilon theophrasti [5] = assay: Herbicidal post-emergence action (greenhouse pots), ABUTH; conditions: 1280 g/ha, visual rating about 3 weeks after treatment vs untreated controls
Method in brief: as §2

Amaranthus retroflexus [6] = assay: Herbicidal post-emergence action (greenhouse pots), AMARE; conditions: 1280 g/ha, visual rating about 3 weeks after treatment vs untreated controls
Method in brief: as §2

Stellaria media [7] = assay: Herbicidal post-emergence action (greenhouse pots), STEME; conditions: 1280 g/ha, visual rating about 3 weeks after treatment vs untreated controls
Method in brief: as §2

Echinochloa crus-galli [8] = assay: Herbicidal pre-emergence action (greenhouse pots), ECHCG; conditions: 1280 g/ha, visual scoring after about 3 weeks vs untreated controls
Method in brief: (§4)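 Weed seeds sown in sandy loam in pots, covered, then soil surface sprayed with WP or EC formulations plus 0.5% additive at 600 L/ha water (converted), 1280 g/ha. Kept in greenhouse ~3 weeks; injury scored visually as % versus untreated controls (100% = dead).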

Poa annua [9] = assay: Herbicidal pre-emergence action (greenhouse pots), POAAN; conditions: 1280 g/ha, visual scoring after about 3 weeks vs untreated controls
Method in brief: as §4

Setaria viridis [10] = assay: Herbicidal pre-emergence action (greenhouse pots), SETVI; conditions: 1280 g/ha, visual scoring after about 3 weeks vs untreated controls
Method in brief: as §4

Amaranthus retroflexus [11] = assay: Herbicidal pre-emergence action (greenhouse pots), AMARE; conditions: 1280 g/ha, visual scoring after about 3 weeks vs untreated controls
Method in brief: as §4

Matricaria inodora [12] = assay: Herbicidal pre-emergence action (greenhouse pots), MATIN; conditions: 1280 g/ha, visual scoring after about 3 weeks vs untreated controls
Method in brief: as §4

Stellaria media [13] = assay: Herbicidal pre-emergence action (greenhouse pots), STEME; conditions: 1280 g/ha, visual scoring after about 3 weeks vs untreated controls
Method in brief: as §4

Lolium rigidum = assay: Herbicidal pre-emergence action (greenhouse pots), LOLRI; conditions: 1280 g/ha, visual scoring after about 3 weeks vs untreated controls
Source text: (§5) In the examples and tables below, the following abbreviations are used: • Undesired Plants/Weeds: • ABUTH: Abutilon theophrasti • AGSTE: Agrostis tenuis • AMARE Amaranthus retroflexus • ECHCG: Echinochloa crus-galli • LOLRI: Lolium rigidum • MATIN: Matricaria inodora • POAAN: Poa annua • SETVI: Setaria viridis • STEME: Stellaria media A. Herbicidal Early Post-Emergence Action Seeds of mono- and dicotyledonous weed plants were placed in plastic pots in sandy loam soil (doubly sown with one species each of mono- or dicotyledonous weed plants per pot) and covered with soil. The compounds of the invention, formulated in the form of wettable powders (WP) or as emulsion concentrates (EC), were then applied onto the surface of the covering soil as aqueous suspension or emulsion with addition of 0.5% additive at a water application rate of 600 liters per hectare (converted). After the treatment, the pots were placed in a greenhouse and kept under good growth conditions for the test plants. After about 3 weeks, the effect of the preparations was scored visually in comparison with untreated controls as percentages. For example, 100% activity=the plants have died, 0% activity=like untreated control plants. Tables C1-C8 below show the effects of selected compounds of the general formula (I) according to Table 1 above on various harmful plants and an application rate corresponding to 1280 g/ha, which were obtained by the experimental procedure mentioned above.

Abutilon theophrasti [14] = assay: Herbicidal pre-emergence action (greenhouse pots), ABUTH; conditions: 1280 g/ha, visual scoring after about 3 weeks vs untreated controls
Source text: as §5

Setaria viridis [15] = assay: Herbicidal post-emergence action (greenhouse pots), SETVI; conditions: 1280 g/ha, rated after about 3 weeks, 100% = plants have died, 0% = like untreated control plants
Source text: as §3

| Compound | AGSTE (herbicidal activity, scored visually in comparison to untreated controls) (Agrostis tenuis) [%] | POAAN (herbicidal activity, scored visually in comparison to untreated controls) (Poa annua [1]) [%] | herbicidal activity POAAN (Poa annua [2]) [%] | herbicidal activity MATIN (Matricaria inodora [3]) [%] | ECHCG (herbicidal activity, rated visually in comparison to untreated controls) (Echinochloa crus-galli [4]) [%] | herbicidal activity ABUTH (Abutilon theophrasti [5]) [%] | herbicidal activity AMARE (Amaranthus retroflexus [6]) [%] | herbicidal activity STEME (Stellaria media [7]) [%] | herbicidal activity ECHCG (Echinochloa crus-galli [8]) [%] | herbicidal activity POAAN (Poa annua [9]) [%] | herbicidal activity SETVI (Setaria viridis [10]) [%] | herbicidal activity AMARE (Amaranthus retroflexus [11]) [%] | herbicidal activity MATIN (Matricaria inodora [12]) [%] | herbicidal activity STEME (Stellaria media [13]) [%] | herbicidal activity LOLRI (Lolium rigidum) [%] | herbicidal activity ABUTH (Abutilon theophrasti [14]) [%] | SETVI (herbicidal activity, rated visually in comparison to untreated controls) (Setaria viridis [15]) [%] |
| --- | --- | --- | --- | --- | --- | --- | --- | --- | --- | --- | --- | --- | --- | --- | --- | --- | --- |
| N#Cc1cccc(Nc2ncc(Cl)cc2F)c1Oc1ccc(F)cc1 [Example 1-139] | 100 | 80 | 100 | 100 | – | – | – | – | – | – | – | – | – | – | – | – | – |
| Fc1ccc(Oc2c(Cl)cccc2Nc2ncc(Cl)cn2)cc1 [Example 1-235] | 100 | 100 | 100 | 80 | 100 | 100 | 100 | 100 | 90 | 100 | 100 | 100 | 100 | 100 | – | – | – |
| N#Cc1cccc(Nc2ncccn2)c1Oc1ccc(F)cc1 [Example 1-248] | 100 | 100 | 100 | – | 100 | 100 | 100 | 100 | 100 | 100 | 100 | 100 | 100 | 100 | 100 | 100 | – |
| N#Cc1cccc(Nc2ncc(F)cn2)c1Oc1ccc(Cl)cc1 [Example 1-269] | 80 | 100 | 90 | – | 90 | 90 | 100 | 100 | 90 | 100 | 100 | 100 | 100 | 100 | 90 | 90 | 90 |
| N#Cc1cccc(Nc2ncc([N+](=O)[O-])cn2)c1Oc1ccc(F)cc1 [Example 1-306] | 100 | 80 | – | 100 | – | – | – | 100 | – | – | 100 | 100 | 90 | 100 | – | – | – |
| CCc1cnc(Nc2cccc(C#N)c2Oc2ccc(F)cc2)nc1 [Example 1-310] | 80 | – | – | 100 | – | – | – | 90 | – | – | – | – | – | – | – | – | – |
| Clc1cnc(Nc2ccccc2Oc2ccccc2)nc1 [Example 1-336] | 100 | 100 | – | 100 | – | – | – | 100 | – | – | – | – | – | 100 | – | – | – |
| N#Cc1cccc(Nc2ncc(F)cn2)c1Oc1cc(F)c(F)cc1F [Example 1-375] | 100 | 100 | 100 | – | – | 90 | 100 | 100 | 100 | 100 | 100 | 100 | 100 | 100 | 90 | 100 | – |
| N#Cc1cccc(Nc2ncc(F)cn2)c1Oc1ccc(Cl)nc1 [Example 3-54] | 100 | 100 | 100 | – | – | 100 | 100 | 90 | 100 | 100 | 100 | 100 | 100 | 100 | 100 | 100 | 90 |
